Measurements taken from US8604217B2, “Compound, a process for its preparation, a pharmaceutical composition, use of a compound, a method for modulating or regulating serine/threonine kinases and a serine/threonine kinases modulating agent” (Selvita S.A., priority 2009, dated 2013).

Columns and labels:
Experiment in all cases: KinaseProfiler kinase panel
Format in all cases: biochemical
MAPK2(m) = MAPK2(m) (Mus musculus (Mouse), UniProt P63085)
Bmx(h) = Bmx(h) (Homo sapiens (Human), UniProt P51813)
CK1δ(h) = CK1δ(h) (Homo sapiens (Human), UniProt P48730)
PIM-3(h) = PIM-3(h) (Homo sapiens (Human), UniProt Q86V86)
ErbB4(h) = ErbB4(h) (Homo sapiens (Human), UniProt Q15303)
MRCKα(h) = MRCKα(h) (Homo sapiens (Human), UniProt Q5VT25)
PKBγ(h) = PKBγ(h) (Homo sapiens (Human), UniProt Q9Y243)
ASK1(h) = ASK1(h) (Homo sapiens (Human), UniProt Q99683)
PRK2(h) = PRK2(h) (Homo sapiens (Human), UniProt Q16513)
EphA8(h) = EphA8(h) (Homo sapiens (Human), UniProt P29322)
SRPK2(h) = SRPK2(h) (Homo sapiens (Human), UniProt P78362)
Sequence of SRPK2(h) (P78362 whole entry): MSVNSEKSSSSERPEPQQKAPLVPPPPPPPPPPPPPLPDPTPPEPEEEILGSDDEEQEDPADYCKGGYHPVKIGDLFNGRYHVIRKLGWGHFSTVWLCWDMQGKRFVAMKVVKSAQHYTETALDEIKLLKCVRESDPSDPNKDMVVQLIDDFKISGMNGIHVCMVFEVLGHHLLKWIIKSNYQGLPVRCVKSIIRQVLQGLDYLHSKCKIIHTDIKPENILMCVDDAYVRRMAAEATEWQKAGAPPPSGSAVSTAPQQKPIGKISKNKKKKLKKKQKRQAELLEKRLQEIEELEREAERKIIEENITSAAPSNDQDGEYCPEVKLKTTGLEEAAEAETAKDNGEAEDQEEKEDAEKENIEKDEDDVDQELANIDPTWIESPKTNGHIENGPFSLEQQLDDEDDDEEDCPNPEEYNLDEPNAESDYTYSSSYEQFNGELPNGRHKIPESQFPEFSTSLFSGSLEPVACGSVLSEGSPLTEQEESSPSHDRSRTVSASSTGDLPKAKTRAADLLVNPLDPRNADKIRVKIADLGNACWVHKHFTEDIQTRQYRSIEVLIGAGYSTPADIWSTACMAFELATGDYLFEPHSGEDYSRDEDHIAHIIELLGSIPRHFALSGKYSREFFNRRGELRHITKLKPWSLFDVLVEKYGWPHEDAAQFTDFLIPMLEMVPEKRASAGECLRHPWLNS

MSSK1(h) = MSSK1(h) (Homo sapiens (Human), UniProt Q9UPE1)
Fer(h) = Fer(h) (Homo sapiens (Human), UniProt P16591)
Sequence of Fer(h) (P16591 whole entry): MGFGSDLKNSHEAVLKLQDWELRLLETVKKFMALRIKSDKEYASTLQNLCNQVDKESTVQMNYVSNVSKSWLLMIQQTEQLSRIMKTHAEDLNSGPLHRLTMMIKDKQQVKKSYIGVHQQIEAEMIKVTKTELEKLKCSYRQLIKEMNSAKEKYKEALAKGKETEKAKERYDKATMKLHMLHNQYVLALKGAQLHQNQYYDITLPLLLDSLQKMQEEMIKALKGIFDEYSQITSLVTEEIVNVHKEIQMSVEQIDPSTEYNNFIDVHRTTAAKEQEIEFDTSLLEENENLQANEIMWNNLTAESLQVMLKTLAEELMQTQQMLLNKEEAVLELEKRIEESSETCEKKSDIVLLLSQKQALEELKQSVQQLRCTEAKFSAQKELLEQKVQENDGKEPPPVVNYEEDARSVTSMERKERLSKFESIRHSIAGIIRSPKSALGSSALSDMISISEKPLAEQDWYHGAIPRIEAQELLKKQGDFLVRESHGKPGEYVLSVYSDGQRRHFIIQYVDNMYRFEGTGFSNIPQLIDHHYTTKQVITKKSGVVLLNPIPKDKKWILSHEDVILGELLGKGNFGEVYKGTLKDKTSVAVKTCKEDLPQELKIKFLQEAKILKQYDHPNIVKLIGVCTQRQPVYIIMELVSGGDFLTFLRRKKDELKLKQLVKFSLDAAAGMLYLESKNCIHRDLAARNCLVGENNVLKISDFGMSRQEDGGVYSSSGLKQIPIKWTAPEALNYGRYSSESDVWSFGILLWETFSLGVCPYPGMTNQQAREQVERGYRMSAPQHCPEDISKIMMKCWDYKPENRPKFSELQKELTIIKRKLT

HIPK1(h) = HIPK1(h) (Homo sapiens (Human), UniProt Q86Z02)
Rsk1(h) = Rsk1(h) (Homo sapiens (Human), UniProt Q15418)
SAPK2b(h) = SAPK2b(h) (Homo sapiens (Human), UniProt Q15759)
MRCKβ(h) = MRCKβ(h) (Homo sapiens (Human), UniProt Q9Y5S2)
Lyn(m) = Lyn(m) (Mus musculus (Mouse), UniProt P25911)
Fgr(h) = Fgr(h) (Homo sapiens (Human), UniProt P09769)
Sequence of Fgr(h) (P09769 whole entry): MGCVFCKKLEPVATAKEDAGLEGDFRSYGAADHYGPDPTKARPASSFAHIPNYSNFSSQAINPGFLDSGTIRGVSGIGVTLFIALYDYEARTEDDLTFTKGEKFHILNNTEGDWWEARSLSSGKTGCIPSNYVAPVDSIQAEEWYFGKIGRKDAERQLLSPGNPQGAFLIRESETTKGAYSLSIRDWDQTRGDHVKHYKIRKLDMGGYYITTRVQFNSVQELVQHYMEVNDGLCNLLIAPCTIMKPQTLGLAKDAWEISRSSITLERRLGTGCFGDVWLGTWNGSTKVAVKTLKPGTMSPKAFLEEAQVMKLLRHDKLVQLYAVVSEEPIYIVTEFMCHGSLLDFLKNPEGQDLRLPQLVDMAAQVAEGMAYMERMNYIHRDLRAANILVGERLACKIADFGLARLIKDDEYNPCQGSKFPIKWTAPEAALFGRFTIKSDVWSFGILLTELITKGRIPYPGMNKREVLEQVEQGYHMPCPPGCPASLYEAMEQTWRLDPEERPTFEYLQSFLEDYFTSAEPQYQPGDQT

PDGFRα(D842V)(h) = PDGFRα(D842V)(h) (Homo sapiens (Human), UniProt P16234, D842V)
SIK(h) = SIK(h) (Homo sapiens (Human), UniProt P57059)
MAPK2(h) = MAPK2(h) (Homo sapiens (Human), UniProt P28482)
Met(D1246H)(h) = Met(D1246H)(h) (Homo sapiens (Human), UniProt P08581, D1246H)
GCK(h) = GCK(h) (Homo sapiens (Human), UniProt Q12851)
Sequence of GCK(h) (Q12851 whole entry): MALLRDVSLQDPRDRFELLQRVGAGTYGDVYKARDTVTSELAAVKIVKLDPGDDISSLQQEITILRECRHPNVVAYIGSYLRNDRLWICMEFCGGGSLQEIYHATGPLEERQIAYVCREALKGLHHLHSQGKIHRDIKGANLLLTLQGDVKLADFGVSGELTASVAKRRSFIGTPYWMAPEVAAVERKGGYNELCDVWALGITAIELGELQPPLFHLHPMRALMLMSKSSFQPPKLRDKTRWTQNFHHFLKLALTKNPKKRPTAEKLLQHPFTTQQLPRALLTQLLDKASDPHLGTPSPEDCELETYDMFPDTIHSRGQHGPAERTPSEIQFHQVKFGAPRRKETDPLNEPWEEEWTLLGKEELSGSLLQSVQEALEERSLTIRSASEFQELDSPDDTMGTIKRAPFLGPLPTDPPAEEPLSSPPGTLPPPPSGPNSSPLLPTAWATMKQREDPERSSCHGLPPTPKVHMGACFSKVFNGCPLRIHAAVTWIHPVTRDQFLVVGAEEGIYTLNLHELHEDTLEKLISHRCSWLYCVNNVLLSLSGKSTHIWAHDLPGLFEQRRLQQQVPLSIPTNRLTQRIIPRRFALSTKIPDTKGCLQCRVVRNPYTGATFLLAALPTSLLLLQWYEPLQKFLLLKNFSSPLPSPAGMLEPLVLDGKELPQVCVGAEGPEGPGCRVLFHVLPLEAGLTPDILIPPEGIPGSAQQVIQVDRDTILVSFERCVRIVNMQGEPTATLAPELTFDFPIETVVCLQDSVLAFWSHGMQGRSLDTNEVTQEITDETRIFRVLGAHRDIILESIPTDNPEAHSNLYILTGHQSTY

PKCη(h) = PKCη(h) (Homo sapiens (Human), UniProt P24723)
CK2α2(h) = CK2α2(h) (Homo sapiens (Human), UniProt P19784)
RIPK2(h) = RIPK2(h) (Homo sapiens (Human), UniProt O43353)
CDK2/cyclinE(h) = CDK2/cyclinE(h) (Homo sapiens (Human), UniProt P24941)
Haspin(h) = Haspin(h) (Homo sapiens (Human), UniProt Q8TF76)
Sequence of Haspin(h) (Q8TF76 whole entry): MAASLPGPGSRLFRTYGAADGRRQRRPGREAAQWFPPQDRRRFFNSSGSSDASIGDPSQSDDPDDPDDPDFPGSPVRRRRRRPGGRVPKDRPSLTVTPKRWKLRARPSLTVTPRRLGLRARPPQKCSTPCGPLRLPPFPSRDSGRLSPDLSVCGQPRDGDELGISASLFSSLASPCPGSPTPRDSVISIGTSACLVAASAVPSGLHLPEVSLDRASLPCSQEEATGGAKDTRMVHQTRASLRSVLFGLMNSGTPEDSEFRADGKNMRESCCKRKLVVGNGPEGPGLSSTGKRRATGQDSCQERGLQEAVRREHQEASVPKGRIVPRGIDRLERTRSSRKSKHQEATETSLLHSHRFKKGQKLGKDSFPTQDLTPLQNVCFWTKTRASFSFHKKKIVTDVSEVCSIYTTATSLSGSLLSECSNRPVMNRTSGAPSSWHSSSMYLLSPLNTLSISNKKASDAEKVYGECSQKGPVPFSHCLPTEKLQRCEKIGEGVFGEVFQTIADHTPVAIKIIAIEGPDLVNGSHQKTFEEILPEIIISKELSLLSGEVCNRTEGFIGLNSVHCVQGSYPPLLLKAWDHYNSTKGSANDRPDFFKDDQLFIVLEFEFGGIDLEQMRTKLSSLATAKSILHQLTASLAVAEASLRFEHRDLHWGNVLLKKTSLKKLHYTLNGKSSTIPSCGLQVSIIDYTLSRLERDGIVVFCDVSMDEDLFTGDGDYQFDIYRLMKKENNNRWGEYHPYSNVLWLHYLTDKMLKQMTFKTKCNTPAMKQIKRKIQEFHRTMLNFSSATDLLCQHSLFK

CaMKIIβ(h) = CaMKIIβ(h) (Homo sapiens (Human), UniProt Q13554)
CaMKI(h) = CaMKI(h) (Homo sapiens (Human), UniProt Q14012)
Sequence of CaMKI(h) (Q14012 whole entry): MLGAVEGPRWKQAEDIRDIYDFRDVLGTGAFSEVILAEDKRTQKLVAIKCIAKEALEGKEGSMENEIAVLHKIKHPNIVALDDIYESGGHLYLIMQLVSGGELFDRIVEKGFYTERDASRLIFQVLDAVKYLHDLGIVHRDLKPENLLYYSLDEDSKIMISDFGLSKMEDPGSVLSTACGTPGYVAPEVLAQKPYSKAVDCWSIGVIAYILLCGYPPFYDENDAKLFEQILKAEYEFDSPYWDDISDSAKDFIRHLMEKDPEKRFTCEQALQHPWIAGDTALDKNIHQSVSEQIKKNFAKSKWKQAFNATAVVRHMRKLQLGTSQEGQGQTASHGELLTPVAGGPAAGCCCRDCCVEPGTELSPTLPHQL

Ret (V804L)(h) = Ret (V804L)(h) (Homo sapiens (Human), UniProt P07949, V804L)
PAK3(h) = PAK3(h) (Homo sapiens (Human), UniProt O75914)
MST3(h) = MST3(h) (Homo sapiens (Human), UniProt Q9Y6E0)
Abl(h) = Abl(h) (Homo sapiens (Human), UniProt P00519)
TAO3(h) = TAO3(h) (Homo sapiens (Human), UniProt Q9H2K8)
CK1γ2(h) = CK1γ2(h) (Homo sapiens (Human), UniProt P78368)
Lyn(h) = Lyn(h) (Homo sapiens (Human), UniProt P07948)
ULK3(h) = ULK3(h) (Homo sapiens (Human), UniProt Q6PHR2)
Sequence of ULK3(h) (Q6PHR2 whole entry): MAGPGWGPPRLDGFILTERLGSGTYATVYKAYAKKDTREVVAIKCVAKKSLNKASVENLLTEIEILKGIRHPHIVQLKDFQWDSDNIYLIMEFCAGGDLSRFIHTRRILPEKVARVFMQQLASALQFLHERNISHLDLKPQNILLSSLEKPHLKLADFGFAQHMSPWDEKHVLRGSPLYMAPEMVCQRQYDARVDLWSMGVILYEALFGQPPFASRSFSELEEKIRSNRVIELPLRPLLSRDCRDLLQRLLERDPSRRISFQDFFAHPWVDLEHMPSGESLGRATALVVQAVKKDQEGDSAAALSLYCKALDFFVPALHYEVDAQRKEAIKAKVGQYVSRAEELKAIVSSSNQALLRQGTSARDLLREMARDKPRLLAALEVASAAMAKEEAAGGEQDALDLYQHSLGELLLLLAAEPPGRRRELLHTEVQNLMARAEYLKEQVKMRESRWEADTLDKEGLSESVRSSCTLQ

PIM-2(h) = PIM-2(h) (Homo sapiens (Human), UniProt Q9P1W9)

Sequence of MAPK2(m) (P63085 whole entry): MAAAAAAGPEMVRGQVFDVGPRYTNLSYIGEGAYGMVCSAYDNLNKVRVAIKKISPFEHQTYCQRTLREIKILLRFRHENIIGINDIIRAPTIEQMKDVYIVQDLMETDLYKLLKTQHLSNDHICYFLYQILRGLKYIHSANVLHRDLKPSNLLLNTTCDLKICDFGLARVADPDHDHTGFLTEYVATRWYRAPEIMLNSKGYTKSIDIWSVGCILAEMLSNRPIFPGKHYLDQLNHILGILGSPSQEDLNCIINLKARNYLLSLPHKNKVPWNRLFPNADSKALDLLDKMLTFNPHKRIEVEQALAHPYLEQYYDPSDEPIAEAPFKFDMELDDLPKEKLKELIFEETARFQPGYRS

remaining activity at 1 µM (MAPK2(m)): 82%
remaining activity at 1 µM (Bmx(h)): 94%
remaining activity at 1 µM (CK1δ(h)): 62%
remaining activity at 1 µM (PIM-3(h)): 34%
remaining activity at 1 µM (ErbB4(h)): 89%
remaining activity at 1 µM (MRCKα(h)): 96%
remaining activity at 1 µM (PKBγ(h)): 39%
remaining activity at 1 µM (ASK1(h)): 100%
remaining activity at 1 µM (PRK2(h)): 56%
remaining activity at 1 µM (EphA8(h)): 102%
remaining activity at 1 µM (SRPK2(h)): 102%
remaining activity at 1 µM (MSSK1(h)): 87%
remaining activity at 1 µM (Fer(h)): 100%
remaining activity at 1 µM (HIPK1(h)): 8%
remaining activity at 1 µM (Rsk1(h)): 56%
remaining activity at 1 µM (SAPK2b(h)): 91%
remaining activity at 1 µM (MRCKβ(h)): 113%
remaining activity at 1 µM (Lyn(m)): 73%
remaining activity at 1 µM (Fgr(h)): 67%
remaining activity at 1 µM (PDGFRα(D842V)(h)): 17%
remaining activity at 1 µM (SIK(h)): 84%
remaining activity at 1 µM (MAPK2(h)): 81%
remaining activity at 1 µM (Met(D1246H)(h)): 72%
remaining activity at 1 µM (GCK(h)): 75%
remaining activity at 1 µM (PKCη(h)): 92%
remaining activity at 1 µM (CK2α2(h)): 73%
remaining activity at 1 µM (RIPK2(h)): 79%
remaining activity at 1 µM (CDK2/cyclinE(h)): 6%
remaining activity at 1 µM (Haspin(h)): 2%
remaining activity at 1 µM (CaMKIIβ(h)): 67%
remaining activity at 1 µM (CaMKI(h)): 89%
remaining activity at 1 µM (Ret (V804L)(h)): 26%
remaining activity at 1 µM (PAK3(h)): 100%
remaining activity at 1 µM (MST3(h)): 93%
remaining activity at 1 µM (Abl(h)): 107%
remaining activity at 1 µM (TAO3(h)): 14%
remaining activity at 1 µM (CK1γ2(h)): 85%
remaining activity at 1 µM (Lyn(h)): 65%
remaining activity at 1 µM (ULK3(h)): 84%
remaining activity at 1 µM (PIM-2(h)): 10%
Structure (SMILES): CCn1c(N2CCNCC2)nc2c(Br)c(Br)c(Br)c(Br)c21 [Compound 416, 4,5,6,7-tetrabromo-1-ethyl-2-(piperazin-1-yl)-1H-benzo[d]imidazole]
